Measured values taken from patent US20210347778A1, “HYDRAZINOPURINE COMPOUND AND TRIAZOLOPURINE COMPOUND FOR INHIBITING XANTHINE OXIDASE” (TERA STONE CO., LTD, priority 2018, published 2021).

How the values were obtained:
[1] = rats; cited from earlier work
[2] = biological target: T1, cow milk-derived xanthine oxidase (XOD) (Bos taurus, UniProt P80457); assay: Xanthine oxidase inhibition activity (inhibition of uric acid formation); type: biochemical; details: for IC50: xanthine 100 μM, XOD 10 mU/mL, 50 mM phosphate buffer pH 7.4, room temperature 15 minutes, O.D. 292 nm; for xanthine oxidase inhibition activity compared with allopurinol: in words, versus allopurinol
T1 construct: cow milk-derived xanthine oxidase (XOD) (10 mU/mL); from tissue; host or cells: cow milk
Description: In a 50 mM phosphate buffer (pH 7.4), xanthine (100 μM), cow milk-derived xanthine oxidase (XOD) (10 mU/mL), and a test compound were mixed and the mixture was incubated at room temperature for 15 minutes.

[3] = patients administered allopurinol; cited from earlier work

T1 sequence (P80457 whole entry): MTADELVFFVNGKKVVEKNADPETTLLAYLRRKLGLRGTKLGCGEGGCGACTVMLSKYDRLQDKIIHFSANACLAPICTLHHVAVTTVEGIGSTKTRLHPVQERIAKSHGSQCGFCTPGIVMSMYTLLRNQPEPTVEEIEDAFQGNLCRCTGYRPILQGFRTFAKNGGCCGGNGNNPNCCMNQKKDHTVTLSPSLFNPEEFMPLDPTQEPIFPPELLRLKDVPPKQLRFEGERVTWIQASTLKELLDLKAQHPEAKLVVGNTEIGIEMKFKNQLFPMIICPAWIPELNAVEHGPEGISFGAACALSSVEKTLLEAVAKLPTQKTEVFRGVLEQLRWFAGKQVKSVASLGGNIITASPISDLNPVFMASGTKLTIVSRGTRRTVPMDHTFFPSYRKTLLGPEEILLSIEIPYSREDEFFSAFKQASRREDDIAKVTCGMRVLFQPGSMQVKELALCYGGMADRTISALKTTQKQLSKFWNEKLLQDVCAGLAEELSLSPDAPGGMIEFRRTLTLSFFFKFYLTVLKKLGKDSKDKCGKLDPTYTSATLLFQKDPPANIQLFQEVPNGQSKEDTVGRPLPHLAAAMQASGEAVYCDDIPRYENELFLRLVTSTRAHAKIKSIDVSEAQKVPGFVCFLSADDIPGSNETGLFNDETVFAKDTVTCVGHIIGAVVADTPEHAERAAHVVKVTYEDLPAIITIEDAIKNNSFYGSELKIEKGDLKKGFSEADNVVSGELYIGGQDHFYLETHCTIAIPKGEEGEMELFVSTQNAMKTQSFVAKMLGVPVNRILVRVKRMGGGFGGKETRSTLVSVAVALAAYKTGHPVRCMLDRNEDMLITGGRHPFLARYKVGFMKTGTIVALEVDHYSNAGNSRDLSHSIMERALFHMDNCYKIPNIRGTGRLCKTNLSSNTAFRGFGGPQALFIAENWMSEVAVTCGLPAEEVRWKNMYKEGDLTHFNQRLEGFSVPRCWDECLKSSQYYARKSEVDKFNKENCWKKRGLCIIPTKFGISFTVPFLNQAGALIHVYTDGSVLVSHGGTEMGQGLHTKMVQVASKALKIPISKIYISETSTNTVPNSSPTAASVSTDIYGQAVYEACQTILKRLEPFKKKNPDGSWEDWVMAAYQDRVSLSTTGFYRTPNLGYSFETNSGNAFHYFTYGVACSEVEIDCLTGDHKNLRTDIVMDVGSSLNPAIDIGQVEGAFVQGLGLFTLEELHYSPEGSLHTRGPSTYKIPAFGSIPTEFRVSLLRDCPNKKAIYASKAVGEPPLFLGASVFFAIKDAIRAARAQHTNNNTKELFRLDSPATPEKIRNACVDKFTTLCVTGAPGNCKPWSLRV

Structure (SMILES) | IC50 [2] [µM] | melting point [°C] | other results
Cc1nc(-c2ccc(OCC(C)C)c(C#N)c2)sc1C(=O)O [Febuxostat] | – | – | excreted through non-renal excretion pathways [1]: about 50%
O=c1nc(NN=Cc2ccc(F)cc2)c2[nH]cnc2[nH]1 [I-1] | 0.038 | – | –
O=c1nc(NN=Cc2ccc(Cl)cc2)c2[nH]cnc2[nH]1 [I-2] | 0.025 | – | –
CN(C)c1ccc(C=NNc2nc(=O)[nH]c3nc[nH]c23)cc1 [I-3] | 0.075 | – | –
O=c1nc(NN=Cc2ccc([N+](=O)[O-])cc2)c2[nH]cnc2[nH]1 [I-4] | 0.045 | – | –
COc1ccc(C=NNc2nc(=O)[nH]c3nc[nH]c23)cc1 [I-5] | 0.057 | – | –
O=c1nc(NN=Cc2ccc3c(c2)OCO3)c2[nH]cnc2[nH]1 [I-6] | 0.063 | – | –
O=c1nc(NN=Cc2ccc(O)cc2)c2[nH]cnc2[nH]1 [I-7] | 0.045 | – | –
CCCCCCCC=NNc1nc(=O)[nH]c2nc[nH]c12 [I-8, 6-n-octylidenehydrazino-7H-purin-2(3H)-one] | 2.02 | 190 | –
O=c1nc(NN=Cc2ccccc2)c2[nH]cnc2[nH]1 [I-9] | 0.05 | 300 | –
Cc1ccc(C=NNc2nc(=O)[nH]c3nc[nH]c23)cc1 [I-10] | 0.02 | > 300 | –
COc1cc(C=NNc2nc(=O)[nH]c3nc[nH]c23)cc(OC)c1OC [I-11] | 0.208 | – | –
O=c1nc(NN=Cc2ccc(O)c(O)c2)c2[nH]cnc2[nH]1 [I-12] | 0.349 | > 300 | –
O=c1nc(NN=Cc2ccc(O)c(O)c2O)c2[nH]cnc2[nH]1 [I-13] | 1.48 | > 300 | –
COc1ccccc1C=NN(C)c1nc(=O)[nH]c2nc[nH]c12 [I-14] | 0.079 | – | –
COc1cccc(C=NN(C)c2nc(=O)[nH]c3nc[nH]c23)c1 [I-15] | 0.1 | – | –
COc1ccc(C=NN(C)c2nc(=O)[nH]c3nc[nH]c23)cc1 [I-16] | 0.076 | – | –
CN(N=Cc1ccc(F)cc1)c1nc(=O)[nH]c2nc[nH]c12 [I-17] | 0.116 | – | –
CN(N=Cc1ccc(O)cc1)c1nc(=O)[nH]c2nc[nH]c12 [I-18] | 0.093 | – | –
CCCCCCCC=NN(C)c1nc(=O)[nH]c2nc[nH]c12 [I-19, 6-(1-methyl-2-n-octylidenehydrazino)-7H-purin-2(3H)-one] | > 10 | 248 | –
COc1cc(C=NN(C)c2nc(=O)[nH]c3nc[nH]c23)cc(OC)c1OC [I-20] | > 10 | > 300 | –
CN(N=Cc1ccc(O)c(O)c1)c1nc(=O)[nH]c2nc[nH]c12 [I-21] | > 10 | > 300 | –
CN(N=Cc1ccc(O)c(O)c1O)c1nc(=O)[nH]c2nc[nH]c12 [I-22] | > 10 | > 300 | –
Cc1nc2[nH]c(=O)nc(NN=Cc3ccc([N+](=O)[O-])cc3)c2[nH]1 [I-33, 8-methyl-6-(4-nitrobenzylidenehydrazino)-7H-purin-2(3H)-one] | – | > 330 | –
O=c1nc(NN=Cc2ccccc2)c2[nH]c(-c3ccccc3)nc2[nH]1 [I-34] | > 10 | 318 | –

Structure (SMILES) | IC50 [2] [µM] | melting point [°C] | other results
O=c1nc(NN=Cc2ccc(Cl)cc2)c2[nH]c(-c3ccccc3)nc2[nH]1 [I-35] | > 10 | > 330 | –
Cc1ccc(C=NNc2nc(=O)[nH]c3nc(-c4ccccc4)[nH]c23)cc1 [I-36] | > 10 | 321 | –
COc1ccc(C=NNc2nc(=O)[nH]c3nc(-c4ccccc4)[nH]c23)cc1 [I-37] | 9.21 | 314 | xanthine oxidase inhibition activity compared with allopurinol [2]: higher xanthine oxidase inhibition activity than allopurinol
O=c1nc(NN=Cc2ccc([N+](=O)[O-])cc2)c2[nH]c(-c3ccccc3)nc2[nH]1 [I-38, 6-(4-nitrobenzylidenehydrazino)-8-phenyl-7H-purin-2(3H)-one] | 4.48 | > 330 | xanthine oxidase inhibition activity compared with allopurinol [2]: higher xanthine oxidase inhibition activity than allopurinol
O=c1nc(NN=Cc2ccc([N+](=O)[O-])cc2)c2[nH]c(-c3ccc(Cl)cc3)nc2[nH]1 [I-43, 8-(4-chlorophenyl)-6-(4-nitrobenzylidenehydrazino)-7H-purin-2(3H)-one] | – | 229 | –
O=c1[nH]c2nc[nH]c2c2ncnn12 [II-1] | > 10 | 262 | –
Cc1nc2c3[nH]cnc3[nH]c(=O)n2n1 [II-2] | > 10 | 277 | –
O=c1[nH]c2nc[nH]c2c2nc(-c3ccccc3)nn12 [II-3] | 2.57 | > 300 | –
O=c1[nH]c2nc[nH]c2c2nc(-c3ccc(Cl)cc3)nn12 [II-4] | 0.066 | 285 | –
COc1ccc(-c2nc3c4[nH]cnc4[nH]c(=O)n3n2)cc1 [II-5] | 0.13 | 288 | –
CCCCCCCc1nc2c3[nH]cnc3[nH]c(=O)n2n1 [II-6] | 9.2 | > 270 | –
Cc1ccc(-c2nc3c4[nH]cnc4[nH]c(=O)n3n2)cc1 [II-7] | 2.4 | > 300 | –
O=c1[nH]c2nc[nH]c2c2nc(-c3ccc([N+](=O)[O-])cc3)nn12 [II-8] | 4.27 | > 300 | –
COc1cc(-c2nc3c4[nH]cnc4[nH]c(=O)n3n2)cc(OC)c1OC [II-9] | 2.01 | > 283 | –
O=c1[nH]c2nc[nH]c2c2nc(-c3ccc(O)c(O)c3)nn12 [II-10] | 1.48 | > 285 | –
Cn1cnc2c1c1nc(-c3ccc(Cl)cc3)nn1c(=O)n2C [II-14] | > 10 | > 330 | –
Cn1cnc2c1c1nc(-c3ccc([N+](=O)[O-])cc3)nn1c(=O)n2C [II-17] | > 10 | > 330 | –
Cc1nc2[nH]c(=O)n3nc(-c4ccc([N+](=O)[O-])cc4)nc3c2[nH]1 [II-24] | > 10 | > 330 | –
O=c1[nH]c2nc(-c3ccccc3)[nH]c2c2ncnn12 [II-25] | 9.91 | > 330 | xanthine oxidase inhibition activity compared with allopurinol [2]: higher xanthine oxidase inhibition activity than allopurinol
O=c1[nH]c2nc(-c3ccccc3)[nH]c2c2nc(-c3ccc([N+](=O)[O-])cc3)nn12 [II-31] | > 10 | > 330 | –
O=c1[nH]c2nc(-c3ccc(Cl)cc3)[nH]c2c2ncnn12 [II-32] | 1.09 | > 330 | xanthine oxidase inhibition activity compared with allopurinol [2]: higher xanthine oxidase inhibition activity than allopurinol
Cn1cnc2c1c1nncn1c(=O)n2C [III-1, 6,9-dimethyl-9H-1,2,4-triazolo[3,4-i]purin-5(6H)-one] | – | 264 | –
Cc1nnc2c3c(ncn3C)n(C)c(=O)n12 [III-2, 3,6,9-trimethyl-9H-1,2,4-triazolo[3,4-i]purin-5(6H)-one] | – | 270 | –
Oc1ncnc2[nH]ncc12 [allopurinol] | – | – | patients suffering from side effects (severe skin disorders, hypersensitivity vasculitis) [3]: three to five
